Experimental data: PubChem BioAssay (NCI)
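Cultured in 96-well plates, cells were exposed to test compound for 48 hours across five concentrations. At the GI50, growth is halved. TGI: total growth inhibition.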

These compounds were tested on 786-0 renal (assay: NCI tumour cell line growth inhibition, 48 h).

SMILES	TGI [µM]
CN1CCCC2C(c3ccccc3)C(C3=NCCCC3)C(c3ccccc3)CC21 (stereo unspecified)	> 100
CCOC(=O)/C(C#N)=C/Nc1c(C)n(C)n(-c2ccccc2)c1=O	> 100

The compounds below were run on XF 498 CNS (assay: NCI tumour cell line growth inhibition, 48 h).

SMILES	TGI [µM]
Cc1[nH]c(=O)[nH]c(=O)c1/C=C/C(=O)NC(CO)CC(C)C (stereo unspecified)	> 346
CCC1CN2CCc3cc(OC)c(OC)cc3C2CC1CC1c2cc(OC)c(OC)cc2CCN1C(=O)C(N)Cc1ccccc1 (stereo unspecified)	10.5
CC(=O)OC1C=C(C=O)C(O)(C=O)C2(C)CCCC(C)(C)C12 (stereo unspecified)	4.3
CC(C)=CCc1c(O)cc(O)c2c1OC(c1ccc(O)cc1)C(O)C2=O (stereo unspecified)	70.3
NCC(Cl)C(O)c1cnc(N)[nH]1 (stereo unspecified)	9.23

Each compound was assayed on KM20L2 colon (assay: NCI tumour cell line growth inhibition, 48 h).

SMILES	TGI [µM]	GI50 [µM]
Cc1[nH]c(=O)[nH]c(=O)c1/C=C/C(=O)NC(CO)CC(C)C (stereo unspecified)	> 237	
N=C1C(=N)c2ccccc2-c2ccccc21.[Cl-].[Ru+2].c1cnc2c(c1)ccc1cccnc12.c1cnc2c(c1)ccc1cccnc12	92.5	34.5
CCC1CN2CCc3cc(OC)c(OC)cc3C2CC1CC1c2cc(OC)c(OC)cc2CCN1C(=O)C(N)Cc1ccccc1 (stereo unspecified)	3.52	
CC(=O)OC1C=C(C=O)C(O)(C=O)C2(C)CCCC(C)(C)C12 (stereo unspecified)	5.11	
CC(C)=CCc1c(O)cc(O)c2c1OC(c1ccc(O)cc1)C(O)C2=O (stereo unspecified)	32.5	
NCC(Cl)C(O)c1cnc(N)[nH]1 (stereo unspecified)	20.8	

These compounds were tested on SN12K1 renal (assay: NCI tumour cell line growth inhibition, 48 h).

SMILES	TGI [µM]
Cc1[nH]c(=O)[nH]c(=O)c1/C=C/C(=O)NC(CO)CC(C)C (stereo unspecified)	> 375
CC(=O)OC1C=C(C=O)C(O)(C=O)C2(C)CCCC(C)(C)C12 (stereo unspecified)	3.85
NCC(Cl)C(O)c1cnc(N)[nH]1 (stereo unspecified)	12.4

Each compound was assayed on DMS 114 small cell lung (assay: NCI tumour cell line growth inhibition, 48 h).

SMILES	TGI [µM]
Cc1[nH]c(=O)[nH]c(=O)c1/C=C/C(=O)NC(CO)CC(C)C (stereo unspecified)	> 375
CC(=O)OC1C=C(C=O)C(O)(C=O)C2(C)CCCC(C)(C)C12 (stereo unspecified)	2.24
CC(C)=CCc1c(O)cc(O)c2c1OC(c1ccc(O)cc1)C(O)C2=O (stereo unspecified)	> 100
NCC(Cl)C(O)c1cnc(N)[nH]1 (stereo unspecified)	40.7

Each compound was assayed on HOP-18 NSCLC (assay: NCI tumour cell line growth inhibition, 48 h).

SMILES	TGI [µM]
Cc1[nH]c(=O)[nH]c(=O)c1/C=C/C(=O)NC(CO)CC(C)C (stereo unspecified)	> 375
CC(=O)OC1C=C(C=O)C(O)(C=O)C2(C)CCCC(C)(C)C12 (stereo unspecified)	1.58
CC(C)=CCc1c(O)cc(O)c2c1OC(c1ccc(O)cc1)C(O)C2=O (stereo unspecified)	43.4
NCC(Cl)C(O)c1cnc(N)[nH]1 (stereo unspecified)	3.45

These compounds were tested on CCRF-CEM leukemia (assay: NCI tumour cell line growth inhibition, 48 h).

SMILES	TGI [µM]
CCOc1cccc(C=Nc2ccccc2SSc2ccccc2N=Cc2cccc(OCC)c2O)c1O	12.2
COc1cc(C(=O)NNC(=O)c2cc(Br)ccc2NC(=O)c2cccs2)cc(OC)c1OC	> 100
C[N+]12CCCCC1C(COc1cccc3cccnc13)CCC2 (stereo unspecified)	> 100
NC(=O)NC1NC(=O)NC1=O (stereo unspecified)	> 100
CC[C@@]1(O)C(=O)OCc2c1cc1n(c2=O)Cc2c-1nc1ccccc1c2/C=N\NC(=O)C[n+]1ccccc1	> 100
Cc1[nH]c(=O)[nH]c(=O)c1/C=C/C(=O)NC(CO)CC(C)C (stereo unspecified)	> 375
CCN(CCCl)c1cc(CN(C)C)cc(NC(=O)c2ccc(C(=O)Nc3cc(CN(C)C)cc(N(CC)CCCl)c3)cc2)c1	1.01
COc1ccccc1C[C@@H]1OC2(C=CC(=O)CC2SC(=O)c2ccccc2)O[C@H]1Cc1ccccc1OC (stereo partly specified)	1.03
COc1ccc(CC2Cc3ccccc3CCN2)cc1OC (stereo unspecified)	> 50
C=CCN1C(=O)/C(=C/c2ccc(Cl)cc2)N=C1SC/C=C/C	> 100
CC12Nc3c(Cl)cc(Cl)cc3N1C(=O)c1ccccc12 (stereo unspecified)	> 100
OCC1OC(NC(=S)NCCC(F)(F)C(F)(F)C(F)(F)C(F)(F)C(F)(F)C(F)(F)F)C(O)C(O)C1O (stereo unspecified)	> 100
COC(=O)c1ccccc1/C=C1\Cc2c(ccc3c2CCC3)C1=O	> 100
Nc1cc(Cl)cc2cc(Cl)cnc12	> 100
CSC1=N/C(=C\c2ccc(C)cc2)C(=O)N1	> 100
O=S(=O)(O)CCSSCCS(=O)(=O)O	> 1000
COC(=O)/C(C)=N/NC(=S)SC	11
CC(=O)OCC1OC(NC(=S)Nn2c(=O)[nH]c3ccccc3c2=O)C(OC(C)=O)C(OC(C)=O)C1OC(C)=O (stereo unspecified)	> 100
Cc1ccc2c(c1)C(=O)C1(C2)Cc2c(C)cccc2C1=O (stereo unspecified)	> 100
CC1=NN(c2cccc(S(=O)(=O)O)c2)C2(C1)C(Cl)C(=O)N2c1nc2ccccc2s1 (stereo unspecified)	3.67
C[C@]12CC[C@H]3[C@@H](CCC4=CC(=O)CC[C@@H]43)[C@@H]1CC[C@]2(O)C(N)=O	> 100
O=c1[nH]c(=O)n(C/C=C/CO)nc1Br	> 100
O=C1CC(Br)c2c(Br)sc(Br)c21 (stereo unspecified)	9.42
COC(=O)C1C2OC(C)(C)OC2CN1S(=O)(=O)c1ccc(C)cc1 (stereo unspecified)	> 100
CC12CCCC(C(=O)O)(C1)[C@H](C(C)(C)C(=O)O)CC2 (stereo partly specified)	> 100
COc1ccc(CNc2ccn(C3OC(CO)C(O)C3O)c(=O)n2)cc1 (stereo unspecified)	> 100

SMILES	TGI [µM]
O=C1CSC(c2ccccc2)N1c1nc2cc3sc(N4C(=O)CSC4c4ccccc4)nc3cc2s1 (stereo unspecified)	> 84.1
Cc1sc2nc(N(C)C)oc(=O)c2c1C	> 100
N=C1C(=N)c2ccccc2-c2ccccc21.[Cl-].[Ru+2].c1cnc2c(c1)ccc1cccnc12.c1cnc2c(c1)ccc1cccnc12	74.7
NCc1ccc(-c2ccc(CN)s2)s1	> 100
NC(CSS(=O)(=O)O)=NC1CC2CCC1C2 (stereo unspecified)	> 100
CCC1CN2CCc3cc(OC)c(OC)cc3C2CC1CC1c2cc(OC)c(OC)cc2CCN1C(=O)C(N)Cc1ccccc1 (stereo unspecified)	10.2
CC(C)OC(=O)c1ccc(NCC2=CC(=O)C=CC2=O)cc1	6.48
O=C(O)c1cccc(Nc2c(C(=O)O)cccc2[N+](=O)[O-])c1	> 100
CC(C)C[C@H]1[C@@H](OCc2ccccc2)COS(=O)(=O)N1[C@H](C)c1ccccc1	> 100
CN1CCC23c4c5ccc(Oc6nnnn6-c6ccccc6)c4OC2c2[nH]c4ccccc4c2CC3(O)C1C5 (stereo unspecified)	4.19
COC(=O)c1ccccc1/C=C1\Cc2c(C)c3c(c(C)c2C1=O)CCC3	> 100
O=c1[nH]c2cccc([N+](=O)[O-])c2c(=O)n1-c1ccc(Cl)cc1	47.1
O=C1c2ccccc2-c2nnc(-c3ccc([N+](=O)[O-])cc3)cc21	> 10
CC(=O)OC1C=C(C=O)C(O)(C=O)C2(C)CCCC(C)(C)C12 (stereo unspecified)	0.706
C1C2CC3CC1CC(c1nn4c(C56CC7CC(CC(C7)C5)C6)nnc4s1)(C2)C3	> 100
Cn1c(-c2cccs2)cc(-c2cccs2)c1-c1cccs1	> 100
C[C@]12CCC(O)CC1=CC[C@@H]1[C@@H]2CC[C@]2(C)C(O)[C@H](n3ccnc3)C[C@@H]12 (stereo partly specified)	> 100
CCOC(=O)CC[C@H](N)C(=O)N[C@@H](Cc1ccc(N(CCCl)CCCl)cc1)C(=O)OCC	4.5
CC(C)CCCC(C)[C@H]1CC[C@H]2n3c(nnc3-c3ccccc3)CCC[C@]12C (stereo partly specified)	24.6
CCCCCCCCCCCCCCCCP(=O)(O)OCC(N)C(=O)O (stereo unspecified)	> 100
O=C(CSc1ncccn1)N/N=C/c1ccccc1OCc1ccccc1	57.9
C=CC(C)(C)n1cc(C2=C3OC(=O)C(c4cn(C(C)(C)C=C)c5ccccc45)=C3OC2=O)c2ccccc21	> 100
NCC(Cl)C(O)c1cnc(N)[nH]1 (stereo unspecified)	> 83.6
CN1CCCC2C(c3ccccc3)C(C3=NCCCC3)C(c3ccccc3)CC21 (stereo unspecified)	> 100
CCOC(=O)/C(C#N)=C/Nc1c(C)n(C)n(-c2ccccc2)c1=O	> 100
